In patent publication US20050176760A1, “N-'4-(2-imino-pyrrolidin-1-yl)phenyl!-acetamide and corresponding piperidine derivatives as factor xa inhibitors for the treatment of thrombo-embolic diseases” (Merck Patent GmbH, priority 2002, published 2005):

Key:
[1] = molecular target: TF/FVIIa (Homo sapiens, UniProt P08709); assay: TF/factor VIIa inhibition (TF/FVIIa-IC50); type: biochemical; settings: Table 1, pharmacological data, 'Affinity to receptors'
From the text: The inhibition of factor Vila by the compounds according to the invention and the measurement of the anticoagulant and antithrombotic activity can be determined by conventional in-vitro or in-vivo methods. A conventional method for the measurement of the inhibition of factor VIIa is described, for example, by H. F. Ronning et al. in Thrombosis Research 1996, 84, 73-81.

[2] = molecular target: FXa (Homo sapiens, UniProt P00742); assay: Factor Xa inhibition (FXa-IC50); type: biochemical; settings: Table 1, pharmacological data, 'Affinity to receptors'
Chain of FXa (P00742 235-488 limits assumed): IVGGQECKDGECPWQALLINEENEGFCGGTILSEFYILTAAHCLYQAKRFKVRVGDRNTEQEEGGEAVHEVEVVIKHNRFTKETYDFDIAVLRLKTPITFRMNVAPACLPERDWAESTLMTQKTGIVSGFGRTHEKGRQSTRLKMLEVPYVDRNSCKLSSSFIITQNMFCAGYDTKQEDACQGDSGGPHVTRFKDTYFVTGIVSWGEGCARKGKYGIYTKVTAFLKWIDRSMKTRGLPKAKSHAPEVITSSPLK
Chain of FXa (P00742 41-179 limits assumed): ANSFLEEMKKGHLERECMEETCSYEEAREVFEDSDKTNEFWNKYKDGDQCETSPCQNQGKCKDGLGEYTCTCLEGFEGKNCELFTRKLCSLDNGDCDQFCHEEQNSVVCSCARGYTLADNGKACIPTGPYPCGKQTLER
From the text: The inhibition of factor Xa by the compounds according to the invention and the measurement of the anticoagulant and antithrombotic activity can be determined by conventional in-vitro or in-vivo methods. A suitable method is described, for example, by J. Hauptmann et al. in Thrombosis and Haemostasis 1990, 63, 220-223.
The inhibition of factor Xa can be measured, for example by the method of T. Hara et al. in Thromb. Haemostas. 1994, 71, 314-319.

Chain of TF/FVIIa (P08709 213-466 limits assumed): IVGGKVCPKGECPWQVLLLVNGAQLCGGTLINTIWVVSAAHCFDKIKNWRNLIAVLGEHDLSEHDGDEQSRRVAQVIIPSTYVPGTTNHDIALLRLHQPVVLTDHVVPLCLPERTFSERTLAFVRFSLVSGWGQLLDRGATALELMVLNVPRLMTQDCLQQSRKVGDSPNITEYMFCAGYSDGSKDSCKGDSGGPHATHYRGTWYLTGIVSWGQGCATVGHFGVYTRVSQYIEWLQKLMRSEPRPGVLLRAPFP
Chain of TF/FVIIa (P08709 61-212 limits assumed): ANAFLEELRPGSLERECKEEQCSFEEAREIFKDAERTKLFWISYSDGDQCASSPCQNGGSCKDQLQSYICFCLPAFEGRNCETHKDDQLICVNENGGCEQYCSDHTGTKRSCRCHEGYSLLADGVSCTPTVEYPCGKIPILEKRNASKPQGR
Chain of TF/FVIIa (P13726 33-295 partner): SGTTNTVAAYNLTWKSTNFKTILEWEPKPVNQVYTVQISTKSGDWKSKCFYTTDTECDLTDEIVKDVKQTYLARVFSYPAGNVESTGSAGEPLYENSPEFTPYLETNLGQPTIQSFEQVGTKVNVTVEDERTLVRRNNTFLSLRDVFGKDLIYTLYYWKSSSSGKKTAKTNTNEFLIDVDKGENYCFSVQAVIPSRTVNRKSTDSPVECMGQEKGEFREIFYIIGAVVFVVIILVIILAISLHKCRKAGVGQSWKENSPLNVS

| Compound | IC50 [1] | IC50 [2] |
| --- | --- | --- |
| N=C1CCCN1c1ccc(NC(=O)C(Nc2cccc(CN)c2)c2ccccc2)cc1Cl (racemic) [AB, (R, S)-2-(3-aminomethylphenylamino)-N-[3-chloro-4-(2-iminopyrrolidin-1-yl)phenyl]-2-phenylacetamide] | 99 nM | 58 nM |
| CON=C1CCCCN1c1ccc(NC(=O)[C@H](CC(C)C)Oc2ccc3ccnc(N)c3c2)cc1 (single isomer, unassigned) [BA] | 490 nM | 680 nM |

Further compounds by falling IC50 [1], results first:

| IC50 [1] | IC50 [2] | Compound |
| --- | --- | --- |
| 2000 nM | 2700 nM | CC(C)C[C@H](Oc1ccc2ccnc(N)c2c1)C(=O)Nc1ccc(N2CCCCC2=N)cc1 [BB, (S)-2-(1-aminoisoquinolin-7-yloxy)-N-[4-(2-iminopiperidin-1-yl)phenyl]-4-methylvaleramide] |
| 290 nM | 220 nM | NCc1cccc(NC(C(=O)Nc2ccc(N3CCCC3=NO)c(Cl)c2)c2ccccc2)c1 (racemic) [AA, (R, S)-2-(3-aminomethylphenylamino)-N-[3-chloro-4-(2-hydroxyiminopyrrolidin-1-yl)phenyl]-2-phenylacetamide] |
| 130 nM | 66 nM | Cc1cc(NC(=O)C(Nc2cccc(CN)c2)c2ccccc2Cl)ccc1N1CCCC1=NCCN(C)C (stereo not shown) [DA, 2-(3-aminomethylphenylamino)-N-[3-methyl-4-(2-(2-dimethylaminoethylimino)pyrrolidin-1-yl)phenyl]-2-(2-chloro)phenyl-acetamide] |
